Assay results published in patent publication US10093623B2, “Cyclic amides as MetAP-2 inhibitors” (MERCK PATENT GmbH, priority 2012, dated 2018).
pIC50: −log10 of the molar value.

The compounds below were run against MetAP-2 (Homo sapiens, UniProt P50579) (assay: MetAP-2 activity measurement (coupled enzymatic reactions, Met-Arg-Ser substrate, dianisidine detection at 450 nm)). Conditions: Inhibition of MetAP-2; read-out: IC50 enzyme.
Format: biochemical
Method in brief: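 Rate read from the linear part of the 450 nm absorbance trace. Dianisidine oxidation by peroxidase reports H2O2 made when amino acid oxidase acts on methionine cleaved from MAS tripeptide, one mol dye per mol Met; extinction coefficient gives molar activity.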

Chain of MetAP-2 (P50579 whole entry, species assumed): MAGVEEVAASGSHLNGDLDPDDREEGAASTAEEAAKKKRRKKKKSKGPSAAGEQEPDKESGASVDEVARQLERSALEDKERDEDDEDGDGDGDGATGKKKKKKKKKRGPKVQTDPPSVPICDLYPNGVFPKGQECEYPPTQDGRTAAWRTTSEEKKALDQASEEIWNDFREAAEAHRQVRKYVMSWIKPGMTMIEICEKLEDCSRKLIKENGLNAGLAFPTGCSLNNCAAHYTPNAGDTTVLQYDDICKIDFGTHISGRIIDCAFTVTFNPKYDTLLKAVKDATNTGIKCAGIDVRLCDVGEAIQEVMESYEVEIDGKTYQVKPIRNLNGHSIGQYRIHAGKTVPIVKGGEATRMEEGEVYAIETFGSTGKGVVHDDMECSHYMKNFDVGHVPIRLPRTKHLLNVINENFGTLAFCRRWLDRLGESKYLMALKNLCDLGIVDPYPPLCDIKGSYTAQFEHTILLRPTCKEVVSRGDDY

Compound | pIC50
O=C1CCc2cc(NC(=O)C3CCN(c4ccc5c(c4)CCC(=O)N5)C3=O)ccc2N1 (stereo not drawn) [A158, N-(2-Oxo-1,2,3,4-tetrahydro-quinolin-6-yl)-2-oxo-1-(2-oxo-1,2,3,4-tetrahydroquinolin-6-yl)-pyrrolidine-3-carboxamide] | < 5.00
O=C(NCc1cc(F)cc(Cl)c1)C1(O)CCCN(Cc2ccccc2)C1 (stereo not drawn) [B16, N-(3-Chloro-5-fluorobenzyl)-1-benzyl-3-hydroxypiperidine-3-carboxamide] | 5.00 to 6.00
CCOC(=O)c1cc2cc(N3CC[C@@](O)(C(=O)NCc4cc(F)cc(Cl)c4)C3=O)ccc2[nH]1 [B81, Ethyl 5-[(R)-3-(3-chloro-5-fluorobenzylcarbamoyl)-3-hydroxy-2-oxopyrrolidin-1-yl]-1H-indole-2-carboxylate] | < 5.00
Cc1ccc(N2CC[C@](O)(C(=O)NCc3cc(F)cc(Cl)c3)C2=O)c(F)c1 [B66, N-(3-Chloro-5-fluorobenzyl)-(S)-1-(2-fluoro-4-methylphenyl)-3-hydroxy-2-oxopyrrolidine-3-carboxamide] | 6.00 to 8.00
O=C(NCc1cc(F)cc(Cl)c1)C1(O)CCN([C@H]2CCC[C@H](O)[C@@H]2O)C1=O (stereo partly drawn) [A125, N-(3-Chloro-5-fluorobenzyl)-1-((1S,2R,3S)-2,3-dihydroxy-cyclohexyl)-3-hydroxy-2-oxo-pyrrolidine-3-carboxamide] | 5.00 to 6.00
O=C1N(Cc2cccc(F)c2F)CCC[C@]1(O)CNCc1cccc(F)c1 [B22, (S)-1-(2,3-Difluorobenzyl)-3-[(3-fluorobenzylamino)methyl]-3-hydroxypiperidin-2-one] | 6.00 to 8.00
O=C(NCc1cc(F)cc(Cl)c1)C1(O)CCN(c2cnn(C3CCNCC3)c2)C1=O (stereo not drawn) [A180, N-(3-Chloro-5-fluorobenzyl)-3-hydroxy-2-oxo-1-(1-piperidin-4-yl-1H-pyrazol-4-yl)pyrrolidine-3-carboxamide] | 6.00 to 8.00
O=C(CNC(=O)[C@@]1(O)CCN(c2ccccc2)C1=O)N1CCOCC1 [A62, N-(2-Morpholin-4-yl-2-oxoethyl)-(S)-3-hydroxy-2-oxo-1-phenyl-pyrrolidine-3-carboxamide] | < 5.00
O=C1N(c2ccccc2)CCC1(O)CNCc1ccc(F)cc1 (stereo not drawn) [B45, 3-[(4-Fluorobenzylamino)-methyl]-3-hydroxy-1-phenyl-pyrrolidin-2-one] | 5.00 to 6.00
O=C1CCc2cc(N3CCC(O)(C(=O)NCCc4cccc(F)c4)C3=O)ccc2N1 (stereo not drawn) [A183, N-[2-(3-Fluorophenyl)ethyl]-3-hydroxy-2-oxo-1-(2-oxo-1,2,3,4-tetrahydroquinolin-6-yl)-pyrrolidine-3-carboxamide] | 6.00 to 8.00
O=C(NCc1ccc(F)cc1)[C@@]1(O)CCCN(Cc2cccc(F)c2F)C1=O [A255, N-(4-Fluorobenzyl)-(S)-1-(2,3-difluorobenzyl)-3-hydroxy-2-oxo-piperidine-3-carboxamide] | 5.00 to 6.00
O=C1CCc2cc(N3CC[C@](O)(C(=O)NCc4cc(F)c(F)cc4F)C3=O)ccc2N1 [A245, N-(2,4,5-Trifluorobenzyl)-(S)-3-hydroxy-2-oxo-1-(2-oxo-1,2,3,4-tetrahydroquinolin-6-yl)-pyrrolidine-3-carboxamide] | 6.00 to 8.00
N#Cc1ccc(N2CC[C@@](O)(C(=O)NCc3cc(F)cc(Cl)c3)C2=O)cn1 [A106, N-(3-Chloro-5-fluorobenzyl)-(R)-1-(6-cyanopyridin-3-yl)-3-hydroxy-2-oxopyrrolidine-3-carboxamide] | < 5.00
CC1(C)O[C@H]2[C@H](CCC[C@@H]2N2CCC(O)(C(=O)NCc3cc(F)cc(Cl)c3)C2=O)O1 (stereo partly drawn) [A129, N-(3-Chloro-5-fluorobenzyl)-1-((3aR,4S,7aS)-2,2-dimethyl-hexahydrobenzo-1,3-dioxol-4-yl)-3-hydroxy-2-oxopyrrolidine-3-carboxamide] | 5.00 to 6.00
CC(NC(=O)C1(O)CCN(c2ccccc2)C1=O)c1cccc(F)c1 (stereo not drawn) [A145, N-[1-(3-Fluorophenyl)ethyl]-3-hydroxy-2-oxo-1-phenyl-pyrrolidine-3-carboxamide] | 5.00 to 6.00
O=C1COCCN1c1ccc(N2CCC(O)(C(=O)NCc3cc(F)cc(Cl)c3)C2=O)cn1 (stereo not drawn) [A167, N-(3-Chloro-5-fluorobenzyl)-3-hydroxy-2-oxo-1-[6-(3-oxo-morpholin-4-yl)-pyridin-3-yl]-pyrrolidine-3-carboxamide] | 6.00 to 8.00
CC(=O)Nc1ccc(N2CCC(O)(C(=O)NCc3cccc(F)c3Cl)C2=O)cn1 (stereo not drawn) [A186, N-(2-Chloro-3-fluorobenzyl)-1-(6-acetylaminopyridin-3-yl)-3-hydroxy-2-oxopyrrolidine-3-carboxamide] | 6.00 to 8.00
CC(=O)N[C@H]1CC[C@H](N2CCC(O)(C(=O)NCc3cc(F)cc(Cl)c3)C2=O)CC1 (stereo partly drawn) [A122, N-(3-Chloro-5-fluorobenzyl)-1-(4-acetylaminocyclohexyl)-3-hydroxy-2-oxopyrrolidine-3-carboxamide] | 5.00 to 6.00
O=C(NCCc1cc(F)cc(Cl)c1)[C@]1(O)CCN(c2ccc3[nH]ncc3c2)C1=O [A192, N-[2-(3-Chloro-5-fluorophenyl)-ethyl]-(R)-3-hydroxy-1-(1H-indazol-5-yl)-2-oxopyrrolidine-3-carboxamide] | 5.00 to 6.00
O=C1CCc2cc(N3CCC(O)(C(=O)NCc4cc(F)cc(Cl)c4)C3=O)cnc2N1 (stereo not drawn) [A214, N-(3-Chloro-5-fluorobenzyl)-3-hydroxy-2-oxo-1-(7-oxo-5,6,7,8-tetrahydro-1,8-naphthyridin-3-yl)pyrrolidine-3-carboxamide] | 6.00 to 8.00
O=C(NCc1cc(F)cc(Cl)c1)C1(O)CCN(C[C@H]2CC[C@@H](C(=O)O)CC2)C1=O (stereo partly drawn) [A226, 4-[3-(3-Chloro-5-fluorobenzyl-carbamoyl)-3-hydroxy-2-oxo-pyrrolidin-1-ylmethyl]cyclo-hexanecarboxylic acid] | 5.00 to 6.00
CS(=O)(=O)N[C@H]1CC[C@H](N2CCC(O)(C(=O)NCc3cc(F)cc(Cl)c3)C2=O)CC1 (stereo partly drawn) [A123, N-(3-Chloro-5-fluorobenzyl)-3-hydroxy-1-(4-methane-sulfonylaminocyclohexyl)-2-oxo-pyrrolidine-3-carboxamide] | 5.00 to 6.00
CCS(=O)(=O)Nc1cccc(N2CC[C@@](O)(C(=O)NCc3cc(F)cc(Cl)c3)C2=O)c1 [A84, N-(3-Chloro-5-fluorobenzyl)-(R)-1-(3-ethanesulfonylaminophenyl)-3-hydroxy-2-oxopyrrolidine-3-carboxamide] | 5.00 to 6.00
O=C1CCc2c(ccc(N3CCC(O)(C(=O)NCc4cc(F)cc(Cl)c4)C3=O)c2F)N1 (stereo not drawn) [B124, N-(3-Chloro-5-fluorobenzyl)-1-(5-fluoro-2-oxo-1,2,3,4-tetrahydroquinolin-6-yl)-3-hydroxy-2-oxopyrrolidine-3-carboxamide] | 6.00 to 8.00
NC(=O)c1cccc(NC(=O)c2cccc(N3CCC(O)(C(=O)NCc4cc(F)cc(Cl)c4)C3=O)c2)c1 (stereo not drawn) [A69, N-(3-Chloro-5-fluorobenzyl)-1-[3-(3-carbamoylphenylcarbamoyl)-phenyl]-3-hydroxy-2-oxo-pyrrolidine-3-carboxamide] | 6.00 to 8.00
(S)-3-(1,1-Dioxo-1l6- thiomorpholine-4-carbonyl)-3- hydroxy-1-phenylpyrrolidin-2-one [A56] | < 5.00
O=C1CCc2cc(N3CC[C@](O)(C(=O)NCc4cc(F)c(F)cc4Cl)C3=O)ccc2N1 [A234, N-(2-Chloro-4,5-difluorobenzyl)-(S)-3-hydroxy-2-oxo-1-(2-oxo-1,2,3,4-tetrahydroquinolin-6-yl)-pyrrolidine-3-carboxamide] | 6.00 to 8.00
